The text below walks through data of ChEMBL document CHEMBL5705903, “A DNA Hypomethylation Signature Predicts Antitumor Activity of LSD1 Inhibitors in SCLC” (Cancer Cell, 2015).

Usually half-life stands for how long it takes for the measured level to halve. Low readings indicate rapid decline, high ones slow decline. What is called AUC(0-inf) is total exposure, with the tail of the curve extrapolated. Lower therefore signals less exposure. One may read the Tmax as the time from dosing to the highest level.

A short description of data set [1]: Half life in mouse blood at 5 mg/kg, po by HPLC/MS/MS analysis. It is filed as ADME, organism-based.
Data set [2] can be described thus: AUC (0 to infinity) in mouse tumor at 5 mg/kg, po by HPLC/MS/MS analysis. It is filed as ADME, organism-based, Neoplasm.
Data set [3] is described as follows: Tmax in mouse tumor at 5 mg/kg, po by HPLC/MS/MS analysis. It is filed as ADME, organism-based, Neoplasm.
The nature of data set [4]: Effect on cleaved PARP level in human NCI-H1417 cells assessed as relative expression at 100 nM measured after 14 days by Western blot analysis (reference value: 0.38). It is filed as functional. Conditions: time 14 day.
The nature of data set [5]: Effect on cleaved PARP level in human NCI-H1417 cells assessed as fold change at 100 nM measured after 7 days by Western blot analysis (reference value: 1.00). Particulars: time 7 day. It is filed as functional. A general note: Immunoblotting shows a protein as a band on a membrane.
Data set [6] in a line: Effect on cleaved PARP level in human NCI-H526 cells assessed as fold change at 1000 nM measured after 10 days by Western blot analysis (reference value: 1.00). It is filed as functional. Particulars: time 10 day.
A short description of data set [7]: Effect on cleaved PARP level in human NCI-H524 cells assessed as relative expression at 10 nM measured after 10 days by Western blot analysis (reference value: 0.95). It is filed as functional. Conditions: time 10 day.
Data set [8] can be described thus: Effect on cleaved PARP level in human COLO-668 cells assessed as relative expression at 10 nM measured after 7 days by Western blot analysis (reference value: […]). It is filed as functional. Conditions: time 7 day.
Data set [9] is described as follows: Effect on cleaved PARP level in human COLO-668 cells assessed as relative expression at 1000 nM measured after 10 days by Western blot analysis (reference value: 1.07). It is filed as functional. Particulars: time 10 day.
Data set [10] is described as follows: Effect on cleaved PARP level in human COLO-668 cells assessed as fold change at 10 nM measured after 14 days by Western blot analysis (reference value: 1.00). It is filed as functional. Conditions: time 14 day.
A short description of data set [11]: Effect on cleaved PARP level in human COLO-668 cells assessed as fold change at 100 nM measured after 14 days by Western blot analysis (reference value: 1.00). It is filed as functional. Conditions: time 14 day.
Data set [12] in a line: Effect on cleaved PARP level in human NCI-H1694 cells assessed as relative expression at 100 nM measured after 10 days by Western blot analysis (reference value: 0.31). It is filed as functional. Conditions: time 10 day.
Data set [13] can be described thus: Effect on cleaved PARP level in human NCI-H1694 cells assessed as fold change at 100 nM measured after 10 days by Western blot analysis (reference value: 1.00). It is filed as functional. Particulars: time 10 day.
Data set [14] in a line: Effect on cleaved PARP level in human NCI-H69 cells assessed as relative expression at 100 nM measured after 10 days by Western blot analysis (reference value: 0.03). It is filed as functional. Particulars: time 10 day.
The nature of data set [15]: Effect on cleaved PARP level in human NCI-H510 cells assessed as relative expression at 1000 nM measured after 7 days by Western blot analysis (reference value: 0.24). Particulars: time 7 day. It is filed as functional, NCI-H510A.
A short description of data set [16]: Effect on cleaved PARP level in human NCI-H510 cells assessed as relative expression at 100 nM measured after 10 days by Western blot analysis (reference value: 0.02). It is filed as functional, NCI-H510A. Conditions: time 10 day.
A short description of data set [17]: Effect on cleaved PARP level in human NCI-H889 cells assessed as relative expression at 100 nM measured after 7 days by Western blot analysis (reference value: 0.34). It is filed as functional. Particulars: time 7 day.
Data set [18] in a line: Effect on cleaved PARP level in human NCI-H889 cells assessed as relative expression at 1000 nM measured after 7 days by Western blot analysis (reference value: 0.34). It is filed as functional. Conditions: time 7 day.
Data set [19] is described as follows: Effect on cleaved PARP level in human NCI-H889 cells assessed as relative expression at 10 nM measured after 14 days by Western blot analysis (reference value: 0.94). It is filed as functional. Conditions: time 14 day.
A short description of data set [20]: Effect on cleaved PARP level in human NCI-H889 cells assessed as relative expression at 1000 nM measured after 14 days by Western blot analysis (reference value: 0.94). It is filed as functional. Conditions: time 14 day.
Data set [21] can be described thus: Effect on cleaved PARP level in human NCI-H889 cells assessed as fold change at 10 nM measured after 14 days by Western blot analysis (reference value: 1.00). It is filed as functional. Conditions: time 14 day.
Data set [22] in a line: Effect on cleaved PARP level in human NCI-H2171 cells assessed as relative expression at 1000 nM measured after 10 days by Western blot analysis (reference value: 0.02). It is filed as functional. Particulars: time 10 day.
The nature of data set [23]: Effect on cleaved PARP level in human NCI-H146 cells assessed as relative expression at 10 nM measured after 14 days by Western blot analysis (reference value: 2.42). It is filed as functional. Conditions: time 14 day.
The nature of data set [24]: Effect on cleaved PARP level in human NCI-H146 cells assessed as fold change at 100 nM measured after 14 days by Western blot analysis (reference value: 1.00). Particulars: time 14 day. It is filed as functional.
A short description of data set [25]: Toxicity in rat assessed as suppression of neutrophil in bone marrow measured for 28 days. It is filed as cell-based. Conditions: 672 h, time 28 day.
Data set [26] in a line: Toxicity in dog assessed as neutrophenia measured for 28 days. The arrangement: species or system Canis lupus familiaris. Particulars: in vivo, 672 h, time 28 day.
A short description of data set [27]: Toxicity in dog assessed as multifocal hemorrhage in organs measured for 28 days. Conditions: in vivo, 672 h, time 28 day. The arrangement: species or system Canis lupus familiaris.
For data set [28], the system named is NCI-H526. The data set is described as follows: Antitumor activity against human NCI-H526 cells xenografted in nude mouse assessed as mean tumor volume at 0.5 mg/kg, po administered daily measured twice weekly (reference value: 2359 +/- 247 mm3). It is filed as functional. A general note: In xenograft studies the graft and the host belong to different species.

Another data set deals with COLO-668. As to the kind of experiment: Effect on NSE gene expression in human COLO-668 cells at 1 uM measured after 4 to 7 days by qRT-PCR analysis. Conditions: time 4-7 day. It is filed as functional, cell-based. (In general: In qPCR the cycle at which signal appears reflects the starting amount.)
Another data set has as its system SHP77. As to the kind of experiment: Effect on NSE gene expression in human SHP77 cells at 1 uM measured after 4 to 7 days by qRT-PCR analysis. It is filed as functional, cell-based. Conditions: time 4-7 day.
In a further data set the test system is NCI-H146. As to the kind of experiment: Effect on SYP gene expression in human NCI-H146 cells at 1 uM measured after 4 days by qRT-PCR analysis. Particulars: time 4.0 day. It is filed as functional, cell-based.
The test system of data set [29] is NCI-H526. As to the kind of experiment: In vivo inhibition of LSD1 in human NCI-H526 cells xenografted in nude mouse assessed as change in TSPAN8 gene expression measured after 24 hrs post single administration by qRT-PCR analysis. It is filed as functional, organism-based. Conditions: dose 0.06-135 mg/kg.
Data set [30] deals with NCI-H526. The data set is described as follows: In vivo inhibition of LSD1 in human NCI-H526 cells xenografted in nude mouse assessed as change in LIX1L gene expression measured after 24 hrs post single administration by qRT-PCR analysis. It is filed as functional, organism-based. Conditions: dose 0.06-135 mg/kg.
Data set [31] relates to NCI-H526. The data set is described as follows: In vivo inhibition of LSD1 in human NCI-H526 cells xenografted in nude mouse assessed as change in ODZ2 gene expression measured after 24 hrs post single administration by qRT-PCR analysis. It is filed as functional, organism-based. Particulars: dose 0.06-135 mg/kg.
The test system of data set [32] is NCI-H526. As to the kind of experiment: In vivo inhibition of LSD1 in human NCI-H526 cells xenografted in nude mouse assessed as change in KIAA1644 gene expression measured after 24 hrs post single administration by qRT-PCR analysis. It is filed as functional, organism-based. Conditions: dose 0.06-135 mg/kg.
The test system of data set [33] is NCI-H526. As to the kind of experiment: In vivo inhibition of LSD1 in human NCI-H526 cells xenografted in nude mouse assessed as change in KIAA1644 gene expression administrated daily for 5 days by qRT-PCR analysis. Conditions: dose 0.02-135 mg/kg, time 5.0 day. It is filed as functional, organism-based.
Data set [34] is described as follows: Dose normalized AUC (0 to infinity) in mouse at 5.5 mg/kg, ip by HPLC/MS/MS analysis. It is filed as ADME, organism-based. Particulars: in vivo.

Structures are written as SMILES. Calls of active or inactive are those of the source. The rule behind the calls is not given here.

`O=C(O)c1ccc(CN2CCC(CN[C@@H]3C[C@H]3c3ccccc3)CC2)cc1` [GSK2879552]: the half-life in data set [1] is 1.9 h. This compound had a total exposure AUC(0-inf) in data set [2] of 2690 ng·h/mL. In data set [3], the Tmax amounted to 0.5 h. Moreover, the Activity in data set [4] was 0.32; in data set [7], 0.77; in [8] it was 1.07; in data set [9], 0.63; in data set [12], 0.23; in [14], 0.06. Moreover, the Activity turned out to be 0.48 in [15]; 0.18 in data set [16]; 0.43 in data set [17]; 0.66 in data set [18]; 1.73 in data set [19]; 2.65 in data set [20]. The Activity was 0.02 in [22]; 1.54 in data set [23]; “Toxic” in data set [25]; “Toxic” in [26]; “Toxic” in data set [27]; 1319 mm3 with NCI-H526 [28]. The “fold change (FC)” value in data set [5] was determined as 2.85; in data set [6], 1.43; in [10], 0.41; in data set [11] it was 0.25; in [13], 0.75; in [21], 1.84. Moreover, the “fold change (FC)” value in data set [24] worked out at 0.45. In addition, the outcome with COLO-668, in the data set with SHP77 and in the data set with NCI-H146 was inactive. Further, the inhibition result in the data set with NCI-H526 [29], in the data set with NCI-H526 [30], in the data set with NCI-H526 [31], in the data set on NCI-H526 [32] and with NCI-H526 [33] was “Dose-Dependent Effect” throughout.

Consider `c1ccc([C@@H]2C[C@H]2NC2CCNCC2)cc1`, for which, in data set [34], the AUC/dose amounted to 172 kg·ng·h/mL/mg.
